These results are taken from patent publication US11554124B2, “Hematopoiesis-enhancing agent” (priority 2018, dated 2023).

Molecules are shown by their SMILES.

The nature of series [1]: Complete blood count of peripheral blood of treated mice. In kind it is in vivo. To be noted: CLEU 50 mg/body i.p. On the procedure:
Wild-type mice with a genetic background of C57BL/6J were purchased from Charles River Laboratories, Inc. Mice at 8 to 14 weeks of age were used for analysis. For CLEU treatment (50 mg/body), a solution of cycloleucine (CLEU) was prepared by diluting cycloleucine (CLEU) (Sigma) in PBS (50 mg/ml), and 1 ml of the CLEU solution was administered intraperitoneally. For AKBA treatment (2 mg/body), 2 mg AKBA (Enzo Life Sciences)/20% DMSO/1 mL PBS solution was administered intraperitoneally. Vehicle without AKBA was used as a control. For measuring complete blood count of peripheral blood, peripheral blood was collected from facial veins and counted by use of an automated animal blood cell counter (microsemi LC-662). All of the experiments conducted in this study were approved by the Animal Experiment Committee of the Environmental Safety Committee of Tohoku University.

Series [2] concerns human cord blood CD34+ cells. The experiment in a line: In vitro erythroid differentiation of human CD34+ umbilical cord blood cells. Type of series: cell-based. To be noted: CLEU 2.5 mg/ml, differentiation medium 7 days. On the procedure: Human CD34^+ umbilical cord blood cells were obtained from the Kanto Koshinetsu Block Blood Center (Tokyo, Japan). The use of cord blood samples for research purposes was approved by the Tohoku University Ethics Committee. The technical details of this method have been described previously. Briefly, CD34^+ umbilical cord blood cells were cultured in growth medium for 5 days, and subsequently, the cells (1×10^5/ml) were cultured in differentiation medium for 7 days. For treatment with CLEU, the concentration thereof was 2.5 mg/ml. As the growth medium, StemMACS HSC Expansion Media XF, human (MACS), supplemented with StemMACS HSC Expansion Cocktail, human (MACS) was used. As the differentiation medium, StemSpan SFEM (STEMCELL) supplemented with hSCF (100 ng/ml; Peprotech), hFLT3-L (33.3 ng/ml; Peprotech), hIL3 (13.3 ng/ml; Peprotech), hBMP4 (13.3 ng/ml; Peprotech), hEPO (2.67 IU/ml; Kyowa Kirin Co., Ltd.), and hydrocortisone (1 μM; Sigma) was used.
Finally, the effect of CLEU on in vitro erythroid cell differentiation conditions of human cord blood CD34^+ cells was investigated.

In another series the test system is DNA CpG methylation. The experiment in a line: Whole genome bisulfite sequencing (WGBS) of bone marrow erythroblast subset II. To be noted: CLEU, BM erythroblast subset II, Day 2, vs PBS. In kind it is in vivo, mouse. On the procedure:
DNA was isolated by using phenol/chloroform extraction from sorted sample of bone marrow subset II erythroblasts (PBS; n=2, CLEU; n=2). DNA quality control, bisulfite conversion, library preparation, high-throughput sequencing, and data mapping were performed at Macrogen, Inc. Briefly, TruSeq DNA Methylation Kit and EZ DNA Methylation Gold (Illumina and Zymo Research) were used for library preparation according to the manufacturer's protocol (TruSeq DNA Methylation Library Preparation Guide), followed by high-throughput sequencing by HiseqX (Illumina). After the sequencing run, the raw sequence reads were filtered based on quality, and the adapter sequences were trimmed off. The remaining reads are mapped to the reference genome (mm9) using BSMAP based on SOAP (Short Oligo Alignment Program). SAMBAMBA version 0.5.9 was used to remove index and PCR duplicates, and to select reads with modification. Methylation level was calculated for every single cytosine from mapping results using BSMAP version 2.87. Only cytosine positions with >=5 reads coverage were used for further analysis.
The overall transcriptional changes observed as above could be attributed to epigenetic modification changes due to the reduced abundance of intracellular SAM (Panel A of FIG. 2). […]

A further series concerns erythropoietin. The experiment in a line: Serum erythropoietin levels determined by ELISA. In kind it is in vivo, mouse. Particulars: CLEU 50 mg/body i.p., vs PBS. The text has this:
FIG. 2 is the experimental result showing that a significant erythropoiesis was induced independently of erythropoietin as a result of SAM reduction by CLEU. Panel A: Abundance of SAM in cells selected from bone marrow subset II treated with PBS or CLEU (Day 2). Panel B: Peripheral blood hemoglobin concentration on the days indicated after PBS or CLEU treatment. Panel C: Total bone marrow cells harvested from the left and right femur and tibiae of PBS or CLEU treated mouse (Day 2). Panel D: Representative image (photograph) of tibia of PBS or CLEU treated mouse (Day 2). Panels E and F: Matured bone marrow cells from each group analyzed by flow cytometry (Day 2). Representative results of flow cytometric analysis are shown in Panel E. Cumulative cell numbers in each of the indicated groups are shown in F. Red blood cell (Ter119^+ Gr1^− B220^− CD4^− CD8^−), myeloid (Gr1^+ Ter119^− B220^− CD4^− CD8^−), and B cells (B220^+ Ter119^− Gr1^− CD4^− CD8^−). Panels G and H: Numbers of bone marrow erythroblasts in each of the subsets analyzed by flow cytometry (Day 2). […] Panel L: Serum erythropoietin levels determined by ELISA. […] For measuring complete blood count of peripheral blood, peripheral blood was collected from facial veins and counted by use of an automated animal blood cell counter (microsemi LC-662). […]
On the technique in general: ELISA stands for enzyme-linked immunosorbent assay.

Take `NC1(C(=O)O)CCCC1` [CLEU, cycloleucine]: in series [1] (Days 1-6, vs PBS), the hematocrit entry is reported as “marked increase”, the platelet counts entry is listed as “no particularly consistent differences”, the red blood cells result is listed as “marked increase” and the “white blood cell counts” value was “no particularly consistent differences”. Moreover, the hemoglobin levels entry in series [1] (peripheral blood, vs PBS) is reported as “marked increase”. Also, the “erythroid differentiation and maturation of human cord blood CD34+ cells” value in series [2] is listed as “induce not only erythroid differentiation but also maturation”. The “reduction of DNA CpG methylation overall” value in the series with DNA CpG methylation was “about 2%”. Further, the serum erythropoietin levels entry in the series with erythropoietin is on record as “significantly down-regulated”.
